Here are results for four compounds from US10183033B2, “Triptolide prodrugs” (priority 2009, dated 2019).

Data set [1] deals with alkaline phosphatase (from bovine intestinal mucosa, Type VII-S). Kind of data set: In vitro enzymatic conversion (hydrolysis) by alkaline phosphatase. Type of data set: in vitro ADME. The settings on record: alkaline phosphatase in glycine buffer (pH 9.8), FIG. 3. Here is the method: (§1) Compound 1 is converted into the active triptolide form by action of the enzyme alkaline phosphatase. An in vitro experiment to study the bioconversion of the triptolide prodrug compound of the invention was performed. In vitro bioconversion was simulated using alkaline phosphatase (from bovine intestinal mucosa, Type VII-S available from Sigma-Aldrich (St. Louis, Mo.) in glycine buffer (pH 9.8).
(§2) The first order degradation constant was calculated by fitting the remaining concentration versus the incubation time. The degradation half-life (t½) of compound 1 was determined to be 2 minutes.

A further data set concerns alkaline phosphatase. The description is as above. The format is in vitro ADME, bovine. The settings on record: bovine. Here is the method:
as §1, §2

A further data set has as its system MiaPaca-2 cells. Kind of data set: Comparative in vivo study, orthotopic MiaPaca-2 pancreatic tumor in nude mice. The settings on record: i.p. daily 60 days. Here is the method:
Thirty nude mice of the strain athymic nu/nu were obtained from National Cancer Institute (NCI) (Rockville, Md.) and kept in a RAR facility. The mice were anaesthetized in accordance with the recommendations of the RAR facility using ketamine 75-200 mg/kg and xylazine 4-8 mg/kg. A small incision 3 mm was made on the left side of the abdominal wall and the spleen was pulled out with forceps far enough to expose and access the pancreas. MiaPaca-2 cell medium was prepared and kept on ice until delivery into the mice. Into each of the mice, 1 million MiaPaca-2 cells suspended in MATRIGEL™ (available from Becton-Dickinson Corporation, Franklin Lakes, N.J.) was injected into the tail of the pancreas (identified by its anatomical attachment with the spleen) using a Hamilton syringe. Following delivery of the cells, the syringe was held steady for an additional 5-10 seconds to permit the MATRIGEL™ to set. The spleen was replaced back into the abdominal cavity, and the abdominal wall was closed by vicryl suture in a continuous manner. The skin was apposed and closed using wound clips. The mice were then transferred to a heating pad until fully recovered before being returned to the cage. Post-operative pain medication (buprenonorphine 0.1 mg/kg) was administered intraperitoneally immediately after full recovery from anaesthesia to prevent respiratory depression and then administered every 12 hours for 2 days. The wound clips were removed from the mice after 7 days of surgery.
The mice were then randomized into 3 groups, each group having 10 mice. The groups were as follows: control group, triptolide group and the triptolide prodrug (compound 1) group. The control group consisted of mice that were injected intraperitoneally with vehicle DMSO.
The triptolide group subjects were injected with 0.2 mg/kg of triptolide dissolved in DMSO and diluted with phosphate buffered saline to a volume of 100 the intraperitoneal injections being daily over a period of 60 days. The compound 1 subjects were intraperitoneally injected daily for 60 days with 0.28 mg/kg of the compound dissolved in phosphate buffered saline diluted to a volume of 100 μl.
The mice were euthanized under anaesthesia at the conclusion of the 60 day treatments. Samples were collected (blood, lung, spleen, liver, kidneys and tumor tissue), and tumor volume and weight were measured and compared among the different groups. Observations were made on the loco-regional growth and cancer growth.

The test system of data set [2] is Pancreatic cancer cells (MiaPaca-2, Panc-1, S2VP10). The experiment in a line: Comparative in vitro cell viability (Dojindo Cell Counting Kit-8). The settings on record: 50 to 200 nmol/L, 24 and 48 hours; prodrug with alkaline phosphatase; FIG. 4-6.
The conditions of data set [3]: Tris buffer (pH 7.4) and Borate buffer (pH 7.4), room temperature.
A further data set concerns SkChA-1 cells. The experiment in a line: Subcutaneous mouse model of cholangiocarcinoma. The format is in vivo, mice. The settings on record: 0.3 mg/kg i.p. BID for 25 days; FIG. 17. Here is the method:
SkChA-1 cells (5×10^5) were suspended in matrigel and injected subcutaneously into the left flank of 4-6 week old female nude mice. Seven days post-cell implantation, mice were injected intraperitoneally with 0.3 mg/kg of compound 1 BID for 25 days. Treatment was stopped at this point, and mice sacrificed. Tumor samples, if any, were harvested from these mice, and tumor weight and volume measured. If tumor burden exceeded University of Minnesota animal care guidelines, mice were sacrificed and their tumors harvested at an earlier time point. Control mice were injected with saline BID.

The subject of a further data set is MIA PaCa-2 cells. Kind of data set: Orthotopic mouse model of pancreatic cancer (60 day dosing study). The format is in vivo, mice. The settings on record: i.p. 60 d, compound 1 0.1-0.9 mg/kg; for survival versus vehicle: triptolide 0.2 mg/kg QD, observed another 28 d, FIG. 13, 14. Here is the method: MIA PaCa-2 cells (1×10^6) were suspended in matrigel and injected into the tail of the pancreas of 4-6 week old female nude mice. Ten days post-cell implantation, mice were injected intraperitoneally with indicated concentrations of compound 1 (0.1, 0.15, 0.3, 0.6 or 0.9 mg/kg) or 0.2 mg/kg Triptolide QD for 60 d. Control mice were injected with saline BID. […] Tumor samples, if any, were harvested from these mice, and tumor weight and volume measured. If tumor burden exceeded University of Minnesota animal care guidelines, mice were sacrificed at earlier time points and their tumors harvested.

For data set [4], the system named is S2013, a highly metastatic pancreatic cancer cell line. Kind of data set: Orthotopic mouse model of pancreatic cancer (21 day dosing study). The settings on record: 0.42 mg/kg i.p. for 21 d; FIG. 16. The format is in vivo, mice. Here is the method:
1×10^6 Cells of S2013, a highly metastatic pancreatic cancer cell line, were suspended in matrigel and injected into the tail of the pancreas of 4-6 week old female nude mice. Seven days post-cell implantation, mice were injected intraperitoneally with 0.42 mg/kg of compound 1 for 21 d. Treatment was stopped after 21 d, and mice sacrificed. Tumor samples, if any, were harvested from these mice, and tumor weight and volume measured. If tumor burden exceeded University of Minnesota animal care guidelines, mice were sacrificed and their tumors harvested at an earlier time point. Control mice were injected with saline QD.

For the next data set, the system named is Neuroblastoma N2a. Kind of data set: Neuroblastoma cell killing. The format is cell-based. Here is the method:
(§3) Neuroblastoma N2a and SKNSH cells were treated with triptolide, resulting in dose- and time-dependent cell killing in N2a, with more than 50% of cells killed with 62.5 nM triptolide at 24 hours and nearly 85% of cells killed with 250 nM triptolide at 48 hours (FIG. 19). To confirm the hypothesis that triptolide results in neuroblastoma cell death via an apoptotic pathway, caspase-3 activity was measured as a marker of apoptosis. In both cell lines, increases in caspase activity with higher doses of triptolide and longer duration of therapy.

The next data set deals with Neuroblastoma N2 cells. Kind of data set: Orthotopic mouse model of neuroblastoma. Type of data set: in vivo. The settings on record: 0.4 mg/kg i.p. for 21 days, A/J immunocompetent mice; FIG. 18. Here is the method: Neuroblastoma N2 cells (1×10^6) were suspended in matrigel and injected into the left retroperitoneal space of 4-6 week old A/J immunocompetent mice. Three days post-cell implantation, mice were injected with 0.4 mg/kg of triptolide intraperitoneally for 21 days. Treatment was stopped at this point, and mice sacrificed. Tumor samples, if any, were harvested from these mice, and tumor weight and volume measured. If tumor burden exceeded University of Minnesota animal care guidelines, mice were sacrificed and their tumors harvested at an earlier time point. Control mice were injected with DMSO for 21 days.

The next data set deals with caspase-3. Kind of data set: Caspase-3 activity in neuroblastoma cells. Type of data set: cell-based. The settings on record: N2a and SKNSH cells; FIG. 20. Here is the method: as §3
The mark [5] stands for this setting: triptolide 0.2 mg/kg, compound 1 0.28 mg/kg.
Setting [6] is: pH 9.8, Alkaline Phosphatase, 37° C., read-out: Enzymatic Hydrolysis (t½), Alkaline Phosphatase, 37° C.

Where a name gives a salt, the structure may show the parent alone. Read-outs that look alike come from different tables or passages of the source.

Regarding `CC(C)[C@]12O[C@H]1[C@@H]1O[C@]13[C@]1(O[C@H]1C[C@H]1C4=C(CC[C@@]13C)C(=O)OC4)[C@@H]2OCOP(=O)(O)O` [Compound 1, 14-O-Phosphonooxymethyltriptolide Disodium Salt], in data set [1], the “time period in which the majority of conversion to triptolide took place” value was at most 10 min. Also, the half-life with alkaline phosphatase (alkaline phosphatase in glycine buffer (pH 9.8), first order fit, read-out: degradation half-life (t½)) amounted to 2 min. The “pancreatic tumor growth inhibition vs untreated control” value with MiaPaca-2 cells (0.28 mg/kg compound 1) is on record as “considerable pancreatic tumor growth inhibition”. In the data set on MiaPaca-2 cells (setting [5]), the “impact on body weight” value was “no apparent significant impact”, the signs of toxicity result is listed as “no apparent signs of toxicity” and the “tumor volume vs untreated control” value was “significantly reduced”. Also, the pancreatic cell viability entry in [2] is “significantly reduced”. Moreover, the “degradation after 1 month” value in data set [3] is “no degradation”. In addition, in the data set with SkChA-1 cells, the “tumor burden (tumor volume or tumor weight) versus control” value is given as “decreased tumor burden”. Moreover, the “tumor burden (tumor volume or tumor weight) versus control” value in the data set on MIA PaCa-2 cells (FIG. 15) is reported as “decreased tumor burden”. In the data set on MIA PaCa-2 cells, the survival versus vehicle entry is “enhanced survival”. Further, the “tumor burden (tumor volume or tumor weight) versus control” value in data set [4] was “decreased tumor burden”.
As to `CC(O[C@@H]1[C@@]2(C(C)C)O[C@H]2[C@@H]2O[C@]23[C@]12O[C@H]2C[C@H]1C2=C(CC[C@@]13C)C(=O)OC2)OP(=O)(O)O` (stereo partly drawn) [Example 3, 14-O-Phosphonooxyethyltriptolide Disodium Salt], the half-life in the data set with alkaline phosphatase (setting [6]) worked out at 9 min.
On the same count and under the same terms, next, `CCC(O[C@@H]1[C@@]2(C(C)C)O[C@H]2[C@@H]2O[C@]23[C@]12O[C@H]2C[C@H]1C2=C(CC[C@@]13C)C(=O)OC2)OP(=O)(O)O` (stereo partly drawn) [Example 4, 14-O-Phosphonooxypropyltriptolide Disodium Salt]: 17 min.
Consider `CC(C)[C@]12O[C@H]1[C@@H]1O[C@]13[C@]1(O[C@H]1C[C@H]1C4=C(CC[C@@]13C)C(=O)OC4)[C@@H]2O` [triptolide], for which the cells killed entry is given as “more than 50%” with Neuroblastoma N2a (62.5 nM, 24 hours) and about 85% with Neuroblastoma N2a (250 nM, 48 hours). Besides, in the data set on MiaPaca-2 cells (setting [5]), the “tumor volume vs untreated control” value is “significantly reduced”. The pancreatic cell viability entry in data set [2] is on record as “significantly reduced”. Further, the survival versus vehicle entry in the data set with MIA PaCa-2 cells is “enhanced survival”. Besides, the “tumor burden (tumor volume and tumor mass) versus control” value with Neuroblastoma N2 cells is reported as “decreased tumor burden”. For the same compound, the caspase-3 activity levels entry in the data set with caspase-3 is “dose- and time-dependent increases”.
